{"source": "patent US11733243B2", "about": "“Use of acamprosate to modulate ERK1/2 activation in animal models for FXS and ASD and individuals diagnosed with FXS and ASD” (Indiana University Research and Technology Corporation, priority 2013, dated 2023)", "key": {"[1]": {"test_system": "alcohol withdrawal associated anxiety", "conditions": "in vivo; cited from earlier work"}, "[2]": {"test_system": "extracellular dopamine", "conditions": "rats; dependent on glycine receptor activation; cited from earlier work"}, "[3]": {"test_system": "GABA(A)", "conditions": "animal studies; cited from earlier work"}, "[4]": {"test_system": "leptin, beta endorphin, cortisol", "conditions": "humans with alcohol dependence; cited from earlier work"}, "[5]": {"test_system": "fmr1 (fragile X gene) Knock Out mice", "assay": "training/test exploration and P.I. in WT and fmr1 KO mice", "type": "in vivo", "parameters": "training left / training right / training Total / test novel / test fam / test total: unit not given here"}, "[6]": {"test_system": "sAPP", "assay": "plasma sAPP total ELISA pre- and post-acamprosate", "type": "in vivo, human", "source_text": "For sAPP levels, the Test plasma samples should be measured soon after collection. […] Just before assay, we thawed the test samples at a low temperature and mixed them completely. The plasma samples should be diluted appropriately with the EIA buffer, if needed. Duplicate measurement of test samples and standard are recommended. We used test samples in neutral pH range, and avoided the contaminations of organic solvent that may affect the measurement. Regarding the standard to quantify levels of sAPP, we prepared a series of sAPP standards in EIA buffer by serial dilutions, from 0.39 ng/mL to 25 ng/mL.\nThe ELISA plate was pre-coated with anti-human APP (R12A1) mouse IgG (IBL). First, the wells for reagent blank was determined, and 100 μL each of “EIA buffer” or 10 mM NaHCO3 buffer was added into the wells. Likewise, wells were assigned for test sample blank, test sample and diluted standard. Then 100 μL each of test sample blank, test sample and dilutions of standard was added into the appropriate wells. The test sample included the plasma sample from each subject, which may vary from 5-25 μl, made up to 100 μL with the EIA buffer. Each pre-coated plates was incubated overnight at 4° C. after covering it tightly with a plate lid. The plate was kept onto a rocker with gentle shaking. The next day, each well of the pre-coated plate was vigorously washed with wash buffer containing 0.05% Tween20 in phosphate buffer. This was performed by filling each well with wash buffer, leaving the pre-coated plate laid for 15-30 seconds and removing wash buffer completely from the plate by snapping. This procedure was repeated five times. After removing the remaining liquid from all wells completely by snapping the plate onto paper towel, we added 100 μL of labeled antibody solution into the wells of test samples, diluted standard and test sample blank. HRP labeled anti-Human APP (R101A4) mouse IgG from IBL was used. The plate was incubated for 30 minutes at 4° C. after covering it with plate lid, and then washed the plate 5 times in the same manner as described before. To develop the color, 100 μL of the Chromogen (TMB solution) was adding into the wells, and the plate was incubated for 30 minutes at room temperature in the dark.\nWhen the liquid started turning blue (by addition of the Chromogen), 100 μL of the Stop solution (1N H2SO4) was added into the wells. […] A plate reader was used and measurements were conducted at 450 nm against a reagent blank. […]\nThe first project enrolled 12 youth aged 5 to 17 years with fragile X syndrome and comorbid ASD in a 10-week open-label trial of acamprosate. […] Plasma sAPP total and sAPPα were determined separately in serum using the ELISA kit obtained from Immuno Biological Laboratories (IBL, Gumma, Japan). […]"}, "[7]": {"test_system": "glutamate or GABA receptors subtypes", "conditions": "clinically relevant concentrations; cited from earlier work"}, "[8]": {"test_system": "adult males diagnosed with FXS", "conditions": "3 adult males, cited from earlier work"}, "[9]": {"test_system": "ERK", "assay": "striatum pERK/ERK in WT and fmr1 KO mice treated with acamprosate", "type": "in vivo", "parameters": "ERK / Total: unit not given here", "source_text": "FIG. 4. Bar graph of pERK activity measured in WT and fmr1 KO mice treated with acamprosate\nReferring now to FIG. 4. A summary of data collected using mouse models for ASD to measure the effect of acamprosate on the levels of ERK activity in wild-type and fmr1 (fragile X gene) Knock Out mice."}, "[10]": {"conditions": "STRIATUM, KO Acam, individual mice, listed as Acam"}}, "note": "Several values for one entry are separate records, joined by “and”; a condition that tells them apart may be missing. Equal entries are not always repeated.", "data": [{"compound": "CC(=O)NCCCS(=O)(=O)O", "note": "[Acamprosate, 3-Acetamidopropane-1-sulfonic acid]", "values": [{"measurement": "alcohol withdrawal associated anxiety effects", "setting": "[1]", "value": "reduce alcohol withdrawal associated anxiety effects"}, {"measurement": "extracellular dopamine levels in the nucleus accumbens", "setting": "[2]", "value": "elevates extracellular dopamine levels in the nucleus accumbens"}, {"measurement": "action at GABA(A)", "setting": "[3]", "value": "exhibits GABA(A) agonism"}, {"measurement": "hormone levels", "setting": "[4]", "value": "lowers levels of several hormones: leptin, beta endorphin, cortisol"}, {"measurement": "training P.I. average (mean)", "setting": "[5]; KO Acam group, KO Sal 0.022521, WT Sal 0.193298", "value": 0.06358}, {"measurement": "test P.I. average (mean)", "setting": "[5]; KO Acam group, KO Sal 0.134837, WT Sal 0.167142", "value": 0.2684}, {"measurement": "test P.I.", "setting": "[5]; KO Acam, individual mice", "value": "0.3192 and 0.2294 and 0.5255 and 0.2717 and 0.3025 and −0.1161 and 0.3463"}, {"measurement": "test fam", "setting": "[5]; KO Acam, individual mice", "value": "24.3 and 40.3 and 28.38 and 28.7 and 32.28 and 47.59 and 30.2"}, {"measurement": "test novel", "setting": "[5]; KO Acam, individual mice", "value": "47.09 and 64.3 and 91.23 and 50.11 and 60.28 and 37.69 and 62.2"}, {"measurement": "test total", "setting": "[5]; KO Acam, individual mice", "value": "71.39 and 104.6 and 119.61 and 78.81 and 92.56 and 85.28 and 92.4"}, {"measurement": "training P.I.", "setting": "[5]; KO Acam, individual mice", "value": "0.1811 and 0.1143 and 0.08976 and −0.105 and 0.1648 and −0.1088 and 0.1088"}, {"measurement": "training Total", "setting": "[5]; KO Acam, individual mice", "value": "89.27 and 135.74 and 82.44 and 97.27 and 78.95 and 159.13 (2×)"}, {"measurement": "training left", "setting": "[5]; KO Acam, individual mice", "value": "52.72 and 75.63 and 44.92 and 43.53 and 45.98 and 70.91 and 88.22"}, {"measurement": "training right", "setting": "[5]; KO Acam, individual mice", "value": "36.55 and 60.11 and 37.52 and 53.74 and 32.97 and 88.22 and 70.91"}, {"measurement": "fractional change in sAPP(total)-CP from Baseline to Week 12", "setting": "[6]; individual patients 1-6", "value": "−0.8279 and −0.3066 and −0.0102 and −0.1029 and −0.437 and −0.544"}, {"measurement": "sAPP(total)-CP level, Week 12", "setting": "[6]; individual patients 1-6, after treatment", "value": "5.561 ng/mL and 25.16 ng/mL and 12.84 ng/mL and 8.077 ng/mL and 56.8 ng/mL and 7.547 ng/mL"}, {"measurement": "mean sAPP total post-treatment", "setting": "[6]; pooled 15 participants (9 FXS, 6 idiopathic ASD), 1,054 mg/day, pre-treatment 32.6±38.3, p=0.01", "value": "21.4 ± 32.3", "unit": "ng/mL"}, {"measurement": "mean sAPP total at endpoint", "setting": "[6]; six subjects, idiopathic ASD trial, baseline 34.7, p=0.02", "value": 19.3, "unit": "ng/mL"}, {"measurement": "direct binding to glutamate or GABA receptors subtypes", "setting": "[7]", "value": "no direct binding"}, {"measurement": "clinical response measured by the CGI-I", "setting": "[8]; mean dose 1,221 mg/day, mean duration 21.3 weeks", "value": "all 3 subjects showed significant positive clinical response"}, {"measurement": "subjects with non-treatment limiting gastrointestinal distress (emesis and/or nausea)", "setting": "[8]", "value": "Two"}, {"measurement": "A = ERK/Total", "setting": "[9]; [10]", "value": "1.31 and 1.57 and 2.78 and 2.43 and 2.19 and 2.25 and 1.71"}, {"measurement": "ERK", "setting": "[9]; [10]", "value": "24161 and 32570 and 26811 and 27464 and 25163 and 21441 and 25808"}, {"measurement": "Total", "setting": "[9]; [10]", "value": "18506 and 20784 and 9659 and 11290 and 11468 and 9535 and 15062"}, {"measurement": "pERK", "setting": "[9]; [10]", "value": "26311 and 37905 and 34961 and 25699 and 25451 and 19381 and 25020"}, {"measurement": "pERK/A", "setting": "[9]; [10]", "value": "20152.78 and 24188.44 and 12595.14 and 10564.44 and 11599.26 and 8618.90 and 14602.11"}, {"measurement": "pERK/A", "setting": "[9]; STRIATUM, KO Acam, individual mice, listed as acamp", "value": "20152.78 and 24188.44 and 12595.14 and 10564.44 and 11599.26 and 8618.90 and 14602.11"}, {"measurement": "pERK (group mean of pERK/A)", "setting": "[9]; STRIATUM, KO acamp, WT sal 14455.22, KO sal 21048.75, T Test 0.96 vs WT, 0.20 vs KO sal", "value": 14617.30}, {"measurement": "effect on ERK activation in fmr1 knockout animals", "setting": "[9]; fmr1 knockout animals", "value": "restores activated ERK to wild-type levels"}]}]}
